Like-named read-outs stand apart in the source and are kept apart here.
What was measured:
[1] = Cytotoxicity assay (sulforhodamine B); assay type: cell-based; conditions: rhesus monkey, LLMCK2 cells, 96 h incubation, mean ± SD
Procedure: The cytotoxic effect was evaluated against LLMCK2 cells in 96-well plates. A suspension of 2.5 × 10^4 cells was added to each well and left to grow as a monolayer for 24 h at 37 °C in a 5% CO2/air mixture. After this period, different concentrations of the synthetic compounds and kaurenoic acid (10 to 100 µg/mL) were added to the wells, and the plate was incubated for 96 h under the same conditions described above. The cells were fixed in 10% trichloroacetic acid at 4 °C for 1 h, washed five times with distilled water, and allowed to dry at room temperature. A solution of 4% sulforhodamine B (in 1% acetic acid) was added to each well, and the plate was kept protected from light for 30 min at 4 °C. The wells were then washed four times with 1% acetic acid, an aliquot (150 µL) of 10 mM Tris-base was added, and the aliquot was homogenized for 15 min. The absorbance was read at 530 nm in a microplate spectrophotometer, and data were calculated as the percentage of inhibition of growth. A concentration for 50% cellular toxicity (CC50) was defined as the concentration that reduced the optic density of treated cells by 50% relative to untreated cells.

[2] = tested on: epimastigote forms of T. cruzi (Y strain); assay: Antitrypanosomal assay; assay type: cell-based, Trypanosoma cruzi; conditions: for SI (selectivity index): SI: CC50 LLMCK2 / IC50 epimastigote; for IC50: mean ± SD
Procedure: Stock solutions of the synthetic compounds and kaurenoic acid (5, 10, 50, and 100 µg/mL) were prepared in dimethylsulfoxide with their final concentrations not exceeding 1.0%. For the assay, epimastigote forms of T. cruzi (Y strain) were harvested during the exponential phase of growth, resuspended in liver infusion tryptose broth supplemented with 10% inactivated fetal bovine serum (Gibco Invitrogen Corporation, New York, NY, USA) and plated on 24-well plates at a concentration of 1 × 10^6 cells/mL. One milliliter of diluted compounds were included in each well and incubated for 96 h at 28 °C. Cell density was determined by counting the parasites in a hemocytometer chamber (Improved Double Neubauer) under a light microscope. All assays were carried out twice, in duplicate, on separate occasions.

[3] = Trypanosoma cruzi, 96 h, epimastigote form of T. cruzi Y strain, 96 h at 28 °C, parasite counting, read-out: Epimastigote IC50

Row | SMILES | melting point | CC50 [1] | SI (selectivity index) [2] | IC50 [2, 3] | CC50 at 96 h [1] | IC50 ([2]; Trypanosoma cruzi, 96 h, read-out: Epimastigote IC50, epimastigote form of T. cruzi Y strain, 96 h at 28 °C, parasite counting) | IC50 ([2]; read-out: Epimastigote IC50, epimastigote form of T. cruzi Y strain, 96 h at 28 °C, parasite counting) | IC50 ([2]; epimastigote form of T. cruzi Y strain, 96 h at 28 °C, parasite counting, read-out: Epimastigote IC50)
1 | C=C1C[C@@]23CC[C@H]4[C@@](C)(CCC[C@@]4(C)C(=O)O)[C@@H]2CC[C@@H]1C3 [compound 1, ent-kaur-16-en-19-oic acid, reference compound] |  | 59.5 ± 0.1 µM | 0.6 | 102 µM |  |  |  | 
2 | C[C@@]12CCC[C@@](C)(C(=O)O)[C@H]1CC[C@@]13C[C@@H](CC[C@H]12)[C@](C)(N=C=S)C3 [compound 2, ent-Kauren-16α-isothiocyane-16β-methyl-19-oic acid] | 174 °C |  | 0.9 |  | 52 ± 0.3 µM | 58.4 µM | 58.2 ± 0.2 µM | 
3 | C[C@@]12CCC[C@@](C)(C(=O)O)[C@H]1CC[C@@]13C[C@@H](CC[C@H]12)[C@](C)(SC#N)C3 [compound 3, ent-Kauren-16α-thiocyane-16β-methyl-19-oic acid] | 165 °C |  |  | 43.7 µM | 103.4 ± 0.7 µM |  |  | 43.4 ± 5.6 µM
4 | C[C@@]12CCC[C@@](C)(C(=O)O)[C@H]1CC[C@@]13C[C@@H](CC[C@H]12)[C@](C)(NC(=S)NN)C3 [compound 4, N4-[ent-Kauren-16β-methyl-19-oic acid]-thiosemicarbazide] | 131 °C |  | 0.7 | 107 ± 13 µM | 71.4 ± 0.7 µM |  |  | 
5 | C[C@@]12CCC[C@@](C)(C(=O)O)[C@H]1CC[C@@]13C[C@@H](CC[C@H]12)[C@](C)(NC(=S)N/N=C/c1ccccc1)C3 [compound 5, N1-(E)-Phenyl-N4-[ent-kauren-16β-methyl-19-oic acid]-thiosemicarbazone] | 202 °C |  | 0.5 | 68.2 ± 11.2 µM | 31.1 ± 1 µM |  |  | 
6 | Cc1ccc(/C=N/NC(=S)N[C@]2(C)C[C@@]34CC[C@H]5[C@@](C)(CCC[C@@]5(C)C(=O)O)[C@@H]3CC[C@@H]2C4)cc1 [compound 6, N1-(E)-[4-Methylphenyl]-N4-[ent-kauren-16β-methyl-19-oic acid]-thiosemicarbazone] | 223 °C |  |  | 23.4 ± 7.7 µM | 122.4 ± 1 µM |  |  | 
7 | COc1ccc(/C=N/NC(=S)N[C@]2(C)C[C@@]34CC[C@H]5[C@@](C)(CCC[C@@]5(C)C(=O)O)[C@@H]3CC[C@@H]2C4)cc1 [compound 7, N1-(E)-[4-Methoxyphenyl]-N4-[ent-kauren-16β-methyl-19-oic acid]-thiosemicarbazone] | 214.5 °C |  |  | 16 ± 4.4 µM | 78.2 µM |  |  | 
8 | C[C@@]12CCC[C@@](C)(C(=O)O)[C@H]1CC[C@@]13C[C@@H](CC[C@H]12)[C@](C)(NC(=S)N/N=C/c1ccc(O)cc1)C3 [compound 8, N1-(E)-[4-Hydroxyphenyl]-N4-[ent-kauren-16β-methyl-19-oic acid]-thiosemicarbazone] | 191.5 °C |  |  | 18.3 ± 4 µM | 29.5 ± 0.8 µM |  |  | 
9 | CN(C)c1ccc(/C=N/NC(=S)N[C@]2(C)C[C@@]34CC[C@H]5[C@@](C)(CCC[C@@]5(C)C(=O)O)[C@@H]3CC[C@@H]2C4)cc1 [compound 9, N1-(E)-[4-Dimethylaminophenyl]-N4-[ent-kauren-16β-methyl-19-oic acid]-thiosemicarbazone] | 231 °C |  |  | 79.5 ± 17.9 µM | 248.5 ± 0.6 µM |  |  | 

Further lines, with some results ahead:

Row | melting point | SMILES | CC50 [1] | SI (selectivity index) [2] | IC50 [2, 3] | CC50 at 96 h [1] | IC50 ([2]; Trypanosoma cruzi, 96 h, read-out: Epimastigote IC50, epimastigote form of T. cruzi Y strain, 96 h at 28 °C, parasite counting) | IC50 ([2]; read-out: Epimastigote IC50, epimastigote form of T. cruzi Y strain, 96 h at 28 °C, parasite counting) | IC50 ([2]; epimastigote form of T. cruzi Y strain, 96 h at 28 °C, parasite counting, read-out: Epimastigote IC50)
10 | 211 °C | C[C@@]12CCC[C@@](C)(C(=O)O)[C@H]1CC[C@@]13C[C@@H](CC[C@H]12)[C@](C)(NC(=S)N/N=C/c1ccccc1[N+](=O)[O-])C3 [compound 10, N1-(E)-[2-Nitrophenyl]-N4-[ent-kauren-16β-methyl-19-oic acid]-thiosemicarbazone] |  |  | 2 ± 1.1 µM | 17.1 ± 0.1 µM |  |  | 
11 | 217 °C | C[C@@]12CCC[C@@](C)(C(=O)O)[C@H]1CC[C@@]13C[C@@H](CC[C@H]12)[C@](C)(NC(=S)N/N=C/c1cccc([N+](=O)[O-])c1)C3 [compound 11, N1-(E)-[3-Nitrophenyl]-N4-[ent-kauren-16β-methyl-19-oic acid]-thiosemicarbazone] |  |  | 19 µM | 104.8 ± 0.4 µM |  |  | 
12 | 219.5 °C | C[C@@]12CCC[C@@](C)(C(=O)O)[C@H]1CC[C@@]13C[C@@H](CC[C@H]12)[C@](C)(NC(=S)N/N=C/c1ccc([N+](=O)[O-])cc1)C3 [compound 12, N1-(E)-[4-Nitrophenyl]-N4-[ent-kauren-16β-methyl-19-oic acid]-thiosemicarbazone] |  | 0.1 | 117 ± 12.8 µM | 15.2 µM |  |  | 
13 | 202.5 °C | C[C@@]12CCC[C@@](C)(C(=O)O)[C@H]1CC[C@@]13C[C@@H](CC[C@H]12)[C@](C)(NC(=S)N/N=C/c1ccccc1Cl)C3 [compound 13, N1-(E)-[2-Chlorophenyl]-N4-[ent-kauren-16β-methyl-19-oic acid]-thiosemicarbazone] |  |  | 39.4 ± 14.3 µM | 364 ± 11.3 µM |  |  | 
14 | 207 °C | C[C@@]12CCC[C@@](C)(C(=O)O)[C@H]1CC[C@@]13C[C@@H](CC[C@H]12)[C@](C)(NC(=S)N/N=C/c1cccc(Cl)c1)C3 [compound 14, N1-(E)-[3-Chlorophenyl]-N4-[ent-kauren-16β-methyl-19-oic acid]-thiosemicarbazone] |  |  | 23.5 ± 7 µM | 56.2 ± 0.4 µM |  |  | 
15 | 223.5 °C | C[C@@]12CCC[C@@](C)(C(=O)O)[C@H]1CC[C@@]13C[C@@H](CC[C@H]12)[C@](C)(NC(=S)N/N=C/c1ccc(Cl)cc1)C3 [compound 15, N1-(E)-[4-Chlorophenyl]-N4-[ent-kauren-16β-methyl-19-oic acid]-thiosemicarbazone] |  |  | 14.9 ± 0.3 µM | 28.7 ± 1.1 µM |  |  | 

— publication PMC6259918, “Antitrypanosomal Activity of Novel Benzaldehyde-Thiosemicarbazone Derivatives from Kaurenoic Acid ^†” (Molecules, 2011)
